Measurements: patent US12649732B2, “Polymorphs of (R)-N-(5-(5-isopropyl-1,2,4-oxadiazol-3-yl)-2,3-dihydro-1H-inden-1-yl)-2-methyl-2H-tetrazole-5-carboxamide” (Cytokinetics, Inc., priority 2019, dated 2026)

Columns and labels:
[1] = target: T1, bovine cardiac myofibrils (Bos taurus, UniProt Q9BE39); test: Skinned bovine cardiac myofibril ATPase assay (PK/LDH-coupled); type: biochemical; conditions: steady-state ATPase, Ca2+ giving 75% activation of myofibril ATPase
T1 construct: full-length cardiac myosin in the context of the native sarcomere; from tissue; host or cells: bovine cardiac left ventricular tissue (Triton X-100 skinned myofibrils)
Experimental: To evaluate the effect of (R)—N-(5-(5-isopropyl-1,2,4-oxadiazol-3-yl)-2,3-dihydro-1H-inden-1-yl)-2-methyl-2H-tetrazole-5-carboxamide on the ATPase activity of full-length cardiac myosin in the context of the native sarcomere, skinned myofibril assays were performed. Bovine cardiac myofibrils were obtained by homogenizing bovine cardiac left ventricular tissue in the presence of a detergent such as triton X-100. Such treatment removes membranes and a majority of the soluble cytoplasmic proteins but leaves intact the cardiac sarcomeric acto-myosin apparatus. Myofibril preparations retain the ability to hydrolyze ATP in a Ca^2+ regulated manner. […] Small molecule agents were assessed for their ability to inhibit the steady-state ATPase activity of bovine cardiac myofibrils using pyruvate kinase and lactate dehydrogenase (PK/LDH)-coupled enzyme system. This assay regenerates myosin-produced ADP into ATP by oxidizing NADH, producing an absorbance change at 340 nm. Prior to testing small molecule agents, the bovine cardiac myofibrils were assessed for their calcium responsiveness and the calcium concentration that achieves either a 50% (pCa50) or 75% (pCa75) activation of the myofibril system was chosen as the final condition for assessing the inhibitory activity of the small molecule agents.

[2] = tested on: adult rat ventricular myocytes; test: Myocyte contractility assay (fractional shortening, edge detection); type: cell-based, Sprague-Dawley rats; conditions: 5 μM, 5 min perfusion, 5 cells tested
Experimental: Adult male Sprague-Dawley rats were anesthetized and the hearts were quickly excised, rinsed and the ascending aorta was cannulated. Continuous retrograde perfusion was initiated on the hearts at a perfusion pressure of 60 cm H2O. Hearts were first perfused with a nominally Ca^2+-free modified Krebs solution of the following composition: 113 mM NaCl, 4.7 mM KCl, 0.6 mM KH2PO4, 0.6 mM Na2HPO4, 1.2 mM MgSO4, 12 mM NaHCO3, 10 mM KHCO3, 30 mM taurine, 5.5 mM glucose and 10 mM Hepes (all Sigma). This medium is not recirculated and is continually aerated with a 95% O2/5% CO2 mixture. […]
Aliquots of myocytes in Tyrode's buffer were placed in perfusion chambers (series 20 RC-27NE; Warner Instruments) complete with heating platforms. […] Contractility of the myocytes and contraction and relaxation velocities were then recorded using edge detection.
Five or more individual myocytes were tested per compound from two or more different myocyte preparations. […] These average transients were analyzed using the IonWizard software (IonOptix) to determine changes in diastolic length and fractional shortening. Fractional shortening was calculated as: ((resting length−length at peak contraction) divided by the resting length). The percent change in fractional shortening from baseline was calculated as: ((post-dose fractional shortening/basal fractional shortening)*100). […]

[3] = tested on: cardiac fractional shortening; test: Echocardiography of rat cardiac contractility, continuous IV infusion; type: in vivo, Sprague Dawley rats; conditions: Mean±S.D., read-out: estimated IC50 (plasma concentration at which fractional shortening is 50% of pre-dose baseline)
Experimental: (§1) Assessment of in vivo cardiac function by echocardiography was performed in male Sprague Dawley rats under isoflurane (1-3%) anesthesia. 2-D M-mode images of the left ventricle were acquired in the parasternal long-axis view before, during, and after administration of compounds by continuous IV infusion or oral gavage. In vivo fractional shortening was determined by M-mode image analysis with the following calculation: ((End diastolic diameter−end systolic diameter)/end diastolic diameter×100). For continuous IV infusion experiments, three pre-dose baseline M-mode images were taken at 1 minute intervals prior to infusion of compound. Compounds were formulated in 50% Propylene Glycol (PG): 16% Captisol: 10% dimethylacetamide (DMA) and delivered via a jugular vein catheter at the rate of 1 mL/kg/h. During infusion, M-mode images were taken at 5 minute intervals. The infusion stopped when fractional shortening reached up to a 60% reduction from baseline. Blood samples were taken to determine the plasma concentration of the compounds. Data was reported as an estimated IC50 value, which is the concentration at which fractional shortening is 50% of the pre-dose baseline contractility.

[4] = tested on: cardiac fractional shortening; test: Echocardiography of rat cardiac contractility, oral dosing; type: in vivo, Sprague Dawley rats
Experimental: as §1, with “contractility. […] For oral dosing studies, three pre-dose baseline M-Mode images were taken at 1 minute intervals prior to compound administration. (R)—N-(5-(5-isopropyl-1,2,4-oxadiazol-3-yl)-2,3-dihydro-1H-inden-1-yl)-2-methyl-2H-tetrazole-5-carboxamide was formulated in a 0.5% hydroxypropyl methylcellulose 2910 (HPMC 2910): 0.1% Tween 80 suspension and delivered as a single dose (5 mL/kg) by oral gavage. Rats were lightly anesthetized for M-Mode echocardiography measurements at select time points over a 24 hour period. Different dose levels were evaluated. The compound effect on cardiac fractional shortening at the highest dose evaluated is presented below as a percent reduction of baseline fractional shortening (=100%). Concurrent with echocardiography measurements, blood samples were taken to determine the corresponding compound plasma concentration.” for “contractility.”

T1 sequence (Q9BE39 whole entry): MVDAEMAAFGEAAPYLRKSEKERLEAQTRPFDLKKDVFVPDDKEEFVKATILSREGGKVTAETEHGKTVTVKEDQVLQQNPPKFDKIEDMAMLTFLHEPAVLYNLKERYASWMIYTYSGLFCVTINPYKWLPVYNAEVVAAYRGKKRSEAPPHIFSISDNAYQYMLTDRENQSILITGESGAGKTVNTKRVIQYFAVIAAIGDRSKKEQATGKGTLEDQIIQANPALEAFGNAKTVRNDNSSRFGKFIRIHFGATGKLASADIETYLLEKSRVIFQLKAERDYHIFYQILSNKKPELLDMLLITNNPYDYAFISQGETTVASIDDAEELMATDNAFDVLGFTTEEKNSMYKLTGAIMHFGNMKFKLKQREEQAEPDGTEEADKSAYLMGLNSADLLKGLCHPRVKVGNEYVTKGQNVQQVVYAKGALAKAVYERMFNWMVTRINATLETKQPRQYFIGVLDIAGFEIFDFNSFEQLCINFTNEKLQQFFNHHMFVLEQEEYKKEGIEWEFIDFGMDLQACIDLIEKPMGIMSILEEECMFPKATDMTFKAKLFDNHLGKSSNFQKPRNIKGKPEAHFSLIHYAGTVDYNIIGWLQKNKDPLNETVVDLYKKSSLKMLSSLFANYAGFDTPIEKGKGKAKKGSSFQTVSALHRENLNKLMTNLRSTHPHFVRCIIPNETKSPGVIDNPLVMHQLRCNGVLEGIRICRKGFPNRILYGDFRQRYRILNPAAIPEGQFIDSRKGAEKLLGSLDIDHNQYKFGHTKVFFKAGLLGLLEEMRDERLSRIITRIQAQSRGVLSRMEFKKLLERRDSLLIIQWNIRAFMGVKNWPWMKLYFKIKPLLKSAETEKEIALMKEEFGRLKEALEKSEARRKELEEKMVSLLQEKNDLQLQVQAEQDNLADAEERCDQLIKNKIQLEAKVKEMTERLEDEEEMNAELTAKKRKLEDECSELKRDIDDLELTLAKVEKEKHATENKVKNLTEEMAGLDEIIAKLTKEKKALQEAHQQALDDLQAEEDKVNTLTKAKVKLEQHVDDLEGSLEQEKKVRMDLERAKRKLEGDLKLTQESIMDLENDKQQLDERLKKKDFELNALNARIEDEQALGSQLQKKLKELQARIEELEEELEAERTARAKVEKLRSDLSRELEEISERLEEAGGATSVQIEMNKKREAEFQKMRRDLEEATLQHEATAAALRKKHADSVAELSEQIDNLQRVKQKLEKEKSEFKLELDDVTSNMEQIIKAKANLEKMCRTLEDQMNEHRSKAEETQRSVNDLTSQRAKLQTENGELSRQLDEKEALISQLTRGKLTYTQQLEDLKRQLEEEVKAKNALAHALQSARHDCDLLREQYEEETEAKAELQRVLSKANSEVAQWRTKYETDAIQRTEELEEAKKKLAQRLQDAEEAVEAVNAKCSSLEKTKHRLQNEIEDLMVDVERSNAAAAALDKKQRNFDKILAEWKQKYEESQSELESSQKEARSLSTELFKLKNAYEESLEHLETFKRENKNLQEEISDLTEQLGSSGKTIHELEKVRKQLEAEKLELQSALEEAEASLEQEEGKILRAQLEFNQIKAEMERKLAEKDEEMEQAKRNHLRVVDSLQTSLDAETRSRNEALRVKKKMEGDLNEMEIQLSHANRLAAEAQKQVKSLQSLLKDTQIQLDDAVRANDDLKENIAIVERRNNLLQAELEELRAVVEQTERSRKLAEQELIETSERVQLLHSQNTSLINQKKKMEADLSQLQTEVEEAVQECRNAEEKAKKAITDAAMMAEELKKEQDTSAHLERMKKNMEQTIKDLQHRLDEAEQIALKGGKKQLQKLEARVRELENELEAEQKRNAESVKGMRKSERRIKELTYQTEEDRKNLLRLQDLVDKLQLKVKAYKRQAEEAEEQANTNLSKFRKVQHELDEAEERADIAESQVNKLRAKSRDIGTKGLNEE
T1 sequence (P85100 whole entry partner): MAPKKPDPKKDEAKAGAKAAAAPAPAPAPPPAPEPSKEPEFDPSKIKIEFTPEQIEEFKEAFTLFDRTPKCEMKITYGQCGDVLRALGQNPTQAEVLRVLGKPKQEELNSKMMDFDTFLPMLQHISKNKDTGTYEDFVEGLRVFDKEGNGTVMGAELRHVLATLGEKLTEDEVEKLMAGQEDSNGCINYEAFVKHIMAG
T1 sequence (Q3SZE5 whole entry partner): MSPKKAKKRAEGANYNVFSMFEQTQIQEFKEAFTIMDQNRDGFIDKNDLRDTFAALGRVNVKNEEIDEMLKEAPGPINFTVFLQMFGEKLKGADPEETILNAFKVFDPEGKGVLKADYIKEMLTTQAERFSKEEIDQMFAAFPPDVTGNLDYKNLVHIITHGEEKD

Structure (SMILES): CC(C)c1nc(-c2ccc3c(c2)CC[C@H]3NC(=O)c2nnn(C)n2)no1 [(R)—N-(5-(5-isopropyl-1,2,4-oxadiazol-3-yl)-2,3-dihydro-1H-inden-1-yl)-2-methyl-2H-tetrazole-5-carboxamide]
- IC15 (CDMF75) [1]: 500 nM
- % FS (% reduction from baseline) ± SEM [2]: 67.8 ± −5.4%
- IC50 [3]: 2700 ± 120 nM
- FS (% reduction from baseline) at 1-2 h post dose (Mean ± S.D.) ([4]; 6 mg/kg single oral gavage, 1-2 h post dose): 40 ± 9%
- FS (% reduction from baseline) at 4 h post dose (Mean ± S.D.) ([4]; 6 mg/kg single oral gavage, 4 h post dose): 18 ± 11%
- IC50 ([4]; Rattus norvegicus, oral dosing, read-out: estimated IC50 (plasma concentration, fractional shortening)): 2900 nM
- estimated IC10 (plasma concentration, fractional shortening) ([4]; oral dosing): 700 nM
